Reference: PMC6271218, “Pharmacokinetics, Tissue Distribution and Excretion of Verticinone from F. hupehensis in Rats” (Molecules, 2014)
Like-named read-outs stand apart in the source and are kept apart here.

Key:
[1] = Single-dose plasma pharmacokinetics after i.g. administration; assay type: in vivo, SD rats; details: for bioavailability / AUC(0-inf) / AUC(0-t) / Tmax / MRT last / Vd/F / half-life / Cmax: SD, rat, plasma; for bioavailability: oral, i.g. vs i.v., read-out: absolute (oral) bioavailability; for AUC(0-inf) / AUC(0-t) / Tmax / MRT last / Vd/F / half-life / Cmax: po; for MRT last: read-out: MRT0–t; for Vd/F: read-out: Vz/F; for half-life: read-out: t1/2z (converted); for Cmax: n = 5; for relationship between dosages and AUC0–t in plasma: oral 1, 2 and 4 mg/kg
Procedure: (§1) Pharmacokinetic studies of verticinone after intravenous (i.v.) and intragastrical (i.g.) administration to rats were designed to determine pharmacokinetic parameters and absolute bioavailability. For i.g administration, verticinone was suspended in 0.5% carboxymethyl cellulose sodium (CMC-Na) to final concentrations of 0.2, 0.4 and 0.8 mg/mL. Verticinone was dissolved in 20% ethanol/80% water to final concentration of 0.08 mg/mL for i.v. administration. For the i.v. group, five male and five female rats received a single dose of 0.4 mg/kg. Blood samples (0.25 mL) were obtained at 0, 4, 15, 30, 45, 60, 120, 240, 360, 480, 600 and 720 min after injection. For the single- i.g. group, fifteen male and fifteen female rats were divided into three groups, and each group received a single oral dose of 1, 2 and 4 mg/kg of verticinone, respectively. In addition, another five male and five female rats received multiple oral doses of 4 mg/kg/day, given as 2 mg/kg doses twice a day (one dose in the morning and the second dose 12 h later) for 7 days, then a single oral dose of 2 mg/kg on the eighth day. Blood samples (0.25 mL) were obtained at 0, 5, 15, 30, 45, 60, 90, 120, 240, 360, 480 and 720 min for male rats and at 0, 5, 10, 20, 30, 45, 60, 120, 240, 360, 480 and 720 min for female rats after oral administration (the eighth day for multiple-dose group). Blood samples were then centrifuged at 4000 rpm for 10 min, and the plasma was collected. All plasma samples were frozen and stored at −20 °C until analysis. Verticinone was isolated from plasma by liquid-liquid extraction according to our previously reported procedure.
(§2) The quantification of verticinone was performed by a LC-MS method based on the previously reported method with slight modifications. The liquid chromatography system consisted of a model 2010 chromatograph (Shimadzu, Kyoto, Japan) equipped with a Shim-Pack VP-ODS C18 column (150 mm × 2.0 mm, 5 μm). A Shimadzu 2010 mass spectrometer (Q-array-Octapole-Quadrupole mass analyzer) equipped with an electrospray ionization interface was used for MS detection. The mobile phase consisted of (A) distilled water and (B) methanol, and the flow rate was 0.2 mL/min. Chromatography separation was achieved using a gradient elution program, as follows: 0.03→6.0 min, B% 15→85; 6.0→7.0 min, B% 85→85; 7.0→8.0 min, B% 85→15; 8.0–12.0 min, B% 15→15. The column and autosampler tray temperature were kept constant at 35 °C and 20 °C, respectively. For the determination of verticinone, the positive mode was selected, along with the conditions as follows.
(§3) CDL voltage […], probe voltage 4.5 kV, CDL temperature 250 °C, block temperature 200 °C, gas flow 1.5 L/min. Hupehenine was used as the internal standard (IS). Both verticinone and IS were detected using selected ion monitoring (SIM) at m/z 430.25 for verticinone and m/z 416.30 for hupehenine (IS), with a dwell time of 200 ms. Blank plasma, tissue homogenate, urine, feces homogenate and bile were used to prepare the corresponding calibration curves to avoid different matrix effects.
(§4) The pharmacokinetic parameters were calculated by the DAS 2.0 software (Chinese Pharmacological Association, Beijing, China) using a standard non-compartmental method. The Cmax and Tmax were determined from the observed data. The elimination rate constant (ke) was calculated by log-linear regression of verticinone concentrations during the terminal elimination phase and the half-life (t1/2) was calculated as 0.693/ke. The AUC0–t was calculated by the linear trapezoidal method. The AUC0–∞ was calculated as the sum of AUC0–t and the extrapolated part determined by Clast/ke. The total clearance (CL) was calculated as dose/AUC0–∞. The absolute bioavailability (F) was calculated by the following equation: F = [(AUCi.g./AUCi.v.) × (Dosei.v./Dosei.g.)] × 100%. The results were expressed as mean ± SD. Statistical analyses were performed using an unpaired Student’s t-test.

[2] = Plasma pharmacokinetics after i.v. administration; assay type: in vivo, SD rats; details: for AUC(0-inf) / AUC(0-t) / MRT last: SD, rat, plasma, iv; for AUC(0-inf) / AUC(0-t) / MRT last / Vz/F: i.v. 0.4 mg/kg; for MRT last: read-out: MRT0–t
Procedure: as §1, §2, §3, §4

[3] = parameters: method as in PMID 19417735; details: mice; cited from earlier work
[4] = Multiple-dose (successive i.g.) plasma pharmacokinetics; assay type: in vivo, SD rats; details: for Cmax / AUC(0-inf) / AUC(0-t) / Tmax / MRT last / Vd/F / half-life: SD, rat, plasma, po; for MRT last: read-out: MRT0–t; for Vd/F: read-out: Vz/F; for half-life: read-out: t1/2z (converted)
Procedure: as §1, §2, §3, §4

[5] = i.g. 1 mg/kg single dose, female rats
[6] = i.g. 1 mg/kg single dose, male rats
[7] = i.g. 2 mg/kg single dose, female rats
[8] = i.g. 2 mg/kg single dose, male rats
[9] = i.g. 4 mg/kg single dose, female rats
[10] = i.g. 4 mg/kg single dose, male rats
[11] = successive i.g. 2 mg/kg, female rats
[12] = successive i.g. 2 mg/kg, male rats

Structure (SMILES): C[C@H]1CC[C@@H]2N(C1)C[C@H]1[C@@H]3C[C@H]4[C@@H](CC(=O)[C@H]5C[C@@H](O)CC[C@@]54C)[C@@H]3CC[C@@H]1[C@]2(C)O [verticinone, Verticinone]
- bioavailability ([1]; female rats): 2.74%
- bioavailability ([1]; male rats): 45.8%
- AUC(0-inf) [1, 5]: 15.3 ± 3.06 ng·h/mL
- AUC(0-t) [1, 5]: 14.5 ± 3.27 ng·h/mL
- Tmax [1, 5]: 0.67 ± 0.31 h
- MRT last [1, 5]: 3.59 ± 0.18 h
- Vd/F [1, 5]: 280 ± 160 L/kg
- half-life [1, 5]: 2.86 ± 1.29 h
- AUC(0-inf) [1, 6]: 167 ± 52.5 ng·h/mL
- AUC(0-t) [1, 6]: 159 ± 50.1 ng·h/mL
- Tmax [1, 6]: 0.7 ± 0.11 h
- MRT last [1, 6]: 3.21 ± 0.34 h
- Vd/F [1, 6]: 25.5 ± 9.07 L/kg
- half-life [1, 6]: 2.78 ± 0.85 h
- AUC(0-inf) [1, 7]: 18.8 ± 5.01 ng·h/mL
- AUC(0-t) [1, 7]: 17.3 ± 5.4 ng·h/mL
- Tmax [1, 7]: 0.4 ± 0.36 h
- MRT last [1, 7]: 3.42 ± 1.22 h
- Vd/F [1, 7]: 649 ± 419 L/kg
- half-life [1, 7]: 4.05 ± 2.48 h
- AUC(0-inf) [1, 8]: 475 ± 119 ng·h/mL
- AUC(0-t) [1, 8]: 446 ± 111 ng·h/mL
- Tmax [1, 8]: 1.45 ± 1.42 h
- MRT last [1, 8]: 3.62 ± 0.37 h
- Vd/F [1, 8]: 19.4 ± 6.7 L/kg
- half-life [1, 8]: 3.05 ± 0.78 h
- AUC(0-inf) [1, 9]: 27.1 ± 5.78 ng·h/mL
- AUC(0-t) [1, 9]: 26.6 ± 5.84 ng·h/mL
- Tmax [1, 9]: 0.4 ± 0.35 h
- MRT last [1, 9]: 2.04 ± 0.21 h
- Vd/F [1, 9]: 387 ± 74.2 L/kg
- half-life [1, 9]: 1.84 ± 0.58 h
- AUC(0-inf) [1, 10]: 769 ± 257 ng·h/mL
- AUC(0-t) [1, 10]: 737 ± 236 ng·h/mL
- Tmax [1, 10]: 0.7 ± 0.11 h
- MRT last [1, 10]: 3.19 ± 0.48 h
- Vd/F [1, 10]: 18.6 ± 9.14 L/kg
- half-life [1, 10]: 2.33 ± 0.86 h
- Cmax [1, 5]: 3.67 ± 1.13 ng/mL
- Cmax [1, 6]: 38.9 ± 9.34 ng/mL
- Cmax [1, 7]: 7.45 ± 7.1 ng/mL
- Cmax [1, 8]: 94.8 ± 17.1 ng/mL
- Cmax [1, 9]: 12.6 ± 5.14 ng/mL
- Cmax [1, 10]: 176 ± 45.2 ng/mL
- relationship between dosages and AUC0–t in plasma ([1]; female rats): nonlinear dependence
- relationship between dosages and AUC0–t in plasma ([1]; male rats): linear dependence
- AUC(0-inf) ([2]; female rats): 98.9 ± 35.8 ng·h/mL
- AUC(0-t) ([2]; female rats): 65.6 ± 7.03 ng·h/mL
- MRT last ([2]; female rats): 2.04 ± 0.34 h
- AUC(0-inf) ([2]; male rats): 168 ± 23 ng·h/mL
- AUC(0-t) ([2]; male rats): 160 ± 20.2 ng·h/mL
- MRT last ([2]; male rats): 2.37 ± 0.14 h
- Vz/F ([2]; female rats): 82.5 ± 70.3 L/kg
- Vz/F ([2]; male rats): 10.9 ± 1.56 L/kg
- Exposure, fold higher in male rats than in female rats ([2]; i.v. dose 0.4 mg/kg): 2.4 fold
- addictive effect [3]: no addictive effect
- Cmax ([4]; successive i.g. 2 mg/kg (twice a day for 7 days, then single dose on eighth day), female rats): 19.9 ± 14 ng/mL
- AUC(0-inf) [4, 11]: 43.4 ± 12 ng·h/mL
- AUC(0-t) [4, 11]: 36.1 ± 15.2 ng·h/mL
- Tmax [4, 11]: 0.38 ± 0.22 h
- MRT last [4, 11]: 2.24 ± 0.28 h
- Vd/F [4, 11]: 485 ± 499 L/kg
- half-life [4, 11]: 5.94 ± 4.84 h
- AUC(0-inf) [4, 12]: 455 ± 125 ng·h/mL
- AUC(0-t) [4, 12]: 439 ± 126 ng·h/mL
- Cmax [4, 12]: 119 ± 26.8 ng/mL
- Tmax [4, 12]: 0.8 ± 0.21 h
- MRT last [4, 12]: 2.98 ± 0.3 h
- Vd/F [4, 12]: 13.8 ± 4.07 L/kg
- half-life [4, 12]: 2.08 ± 0.51 h
- AUC, fold higher after successive i.g. than single i.g. ([4]; female rats, 2 mg/kg): approximately 2 fold
- CL, fold lower after successive i.g. than single i.g. ([4]; female rats, 2 mg/kg): 2 fold
- Cmax, fold higher after successive i.g. than single i.g. ([4]; female rats, 2 mg/kg): approximately 2 fold
